Data: patent US9073882B2, “Inhibitors of the renal outer medullary potassium channel” (Merck Sharp & Dohme Corp., priority 2010, dated 2015)
pIC50: −log10 of the molar value. Like-named read-outs stand apart in the source and are kept apart here.

Target: hROMK1 (Kir1.1) (Homo sapiens (Human), UniProt P48048)
Assay: ^86Rb^+ Efflux Assay
Type: cell-based
Conditions: CHO-DHFR- cells stably expressing hROMK1 (Kir1.1)
[1] = value in parentheses at the end of each Example, read-out: IC50 in the ^86Rb^+ Efflux Assay
[2] = Table 1, read-out: ^86Rb^+ Efflux Assay IC50

Chain of hROMK1 (Kir1.1) (P48048 whole entry): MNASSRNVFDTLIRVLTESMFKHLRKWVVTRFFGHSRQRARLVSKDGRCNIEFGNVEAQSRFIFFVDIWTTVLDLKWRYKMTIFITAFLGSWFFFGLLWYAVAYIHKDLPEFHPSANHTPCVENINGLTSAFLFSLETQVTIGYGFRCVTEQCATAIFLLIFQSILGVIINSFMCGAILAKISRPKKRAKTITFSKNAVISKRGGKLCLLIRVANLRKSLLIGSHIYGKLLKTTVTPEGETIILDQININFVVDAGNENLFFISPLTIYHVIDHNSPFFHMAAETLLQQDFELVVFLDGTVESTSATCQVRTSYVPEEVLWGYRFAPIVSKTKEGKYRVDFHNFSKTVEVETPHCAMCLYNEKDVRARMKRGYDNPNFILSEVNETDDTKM

CC1(C)CN(CCc2ccc([N+](=O)[O-])cc2)CCN1CCc1ccc([N+](=O)[O-])cc1 [Example 9, 2,2-Dimethyl-1,4-bis[2-(4-nitrophenyl)ethyl]piperazine]
pIC50 [1]: 6.68
pIC50 [2]: 6.68

N#Cc1cc(F)c(CCN2CCN(CCc3ccc4c(c3)COC4=O)CC2)cc1F [Example 39, 2,5-Difluoro-4-[2-[4-[2-(1-oxo-3H-isobenzofuran-5-yl)ethyl]piperazin-1-yl]ethyl]benzonitrile]
pIC50 [1]: 6.64

O=[N+]([O-])c1ccc(CCN2C[C@@H]3C[C@H]2CN3CCc2ccc([N+](=O)[O-])cc2)cc1 [Example 10, (1S,4S)-2,5-Bis[2-(4-nitrophenyl)ethyl]-2,5-diazabicyclo[2.2.1]heptane]
pIC50 [1]: 6.96
pIC50 [2]: 6.96

COc1cc(CC(C)N2CCN(CCc3ccc4c(c3)COC4=O)CC2)ccc1C#N (stereo not shown) [Example 48, 2-Methoxy-4-[2-[4-[2-(1-oxo-3H-isobenzofuran-5-yl)ethyl]piperazin-1-yl]propyl]benzonitrile]
pIC50 [1]: 6.68

O=[N+]([O-])c1ccc(CCN2CCN(CCc3ccc([N+](=O)[O-])cc3)C(CO)C2)cc1 (stereo not shown) [Example 13, {1,4-Bis[2-(4-nitrophenyl)ethyl]piperazin-2-yl}methanol]
pIC50 [1]: 6.59

COc1cc(CCN2CCN(CCc3ccc4c(c3)COC4=O)CC2C(F)(F)F)ccc1C#N (stereo not shown) [Example 56, 2-Methoxy-4-(2-{4-[2-(1-oxo-1,3-dihydro-2-benzofuran-5-yl)ethyl]-2-(trifluoromethyl)piperazin-1-yl}ethyl)benzonitrile]
pIC50 [1]: 6.57
pIC50 [2]: 6.57

Cc1c(CCN2CCN(CCc3ccc(-n4cnnn4)nc3)CC2)ccc2c1COC2=O [Example 43, 4-Methyl-5-[2-[4-[2-[6-(tetrazol-1-yl)-3-pyridyl]ethyl]piperazin-1-yl]ethyl]-3H-isobenzofuran-1-one]
pIC50 [1]: 6.21
pIC50 [2]: 6.21

COc1cc(CCN2CCN(CCc3ccc4c(c3C)COC4=O)CC2)c(Cl)cc1C#N [Example 80, 5-Chloro-2-methoxy-4-(2-{4-[2-(4-methyl-1-oxo-1,3-dihydro-2-benzofuran-5-yl)ethyl]piperazin-1-yl}ethyl)benzonitrile]
pIC50 [1]: 7.15

O=[N+]([O-])c1ccc(CCN2CCN(CCc3ccc([N+](=O)[O-])cc3)C(C(F)F)C2)cc1 (stereo not shown) [Example 12, 2-(Difluoromethyl)-1,4-bis[2-(4-nitrophenyl)ethyl]piperazine]
pIC50 [1]: 6.36

O=[N+]([O-])c1ccc(CCN2CC3CCC(C2)N3CCc2ccc([N+](=O)[O-])cc2)cc1 [Example 16, 3,8-Bis-[2-(4-nitrophenyl)ethyl]-3,8-diazabicyclo[3.2.1]octane]
pIC50 [1]: 6.72

Cc1cc(C#N)ccc1CCN1CCN(CCc2ccc([N+](=O)[O-])cc2)CC1 [Example 23, 3-Methyl-4-(2-{4-[2-(4-nitrophenyl)ethyl]piperazin-1-yl}ethyl)benzonitrile]
pIC50 [1]: 7.21

COc1cc(C(C)CN2CCN(CCc3ccc4c(c3)COC4=O)CC2)ccc1C#N (stereo not shown) [Example 44, 2-Methoxy-4-[1-methyl-2-[4-[2-(1-oxo-3H-isobenzofuran-5-yl)ethyl]piperazin-1-yl]ethyl]benzonitrile]
pIC50 [1]: 6.55

COc1cc(CCN2CCN(CCc3ccc4c(c3)COC4=O)CC2)c(F)cc1C#N [Example 52, 5-Fluoro-2-methoxy-4-(2-{4-[2-(1-oxo-1,3-dihydro-2-benzofuran-5-yl)ethyl]piperazin-1-yl}ethyl)benzonitrile]
pIC50 [1]: 7.17

N#Cc1ccc(CCN2CCN(CCc3ccc4c(c3)COC4=O)CC2)c(Cl)c1F [Example 85, 3-Chloro-2-fluoro-4-(2-{4-[2-(1-oxo-1,3-dihydro-2-benzofuran-5-yl)ethyl]piperazin-1-yl}ethyl)benzonitrile]
pIC50 [1]: 6.89

Cc1c(C(C)CN2CCN(CC(C)c3ccc4c(c3C)COC4=O)CC2)ccc2c1COC2=O (stereo not shown) [Example 93]
pIC50 [1]: 6.66

COc1cc(CCN2CCN(CCc3ccc4c(c3)COC4=O)CC2)c(Cl)cc1C#N [Example 61, 5-Chloro-2-methoxy-4-(2-{4-[2-(1-oxo-1,3-dihydro-2-benzofuran-5-yl)ethyl]piperazin-1-yl}ethyl)benzonitrile]
pIC50 [1]: 7.03

COc1c(C#N)ccc(CCN2CCN(CCc3ccc4c(c3C)COC4=O)CC2)c1Cl [Example 88, 3-Chloro-2-methoxy-4-(2-{4-[2-(4-methyl-1-oxo-1,3-dihydro-2-benzofuran-5-yl)ethyl]piperazin-1-yl}ethyl)benzonitrile]
pIC50 [1]: 7.08

Cc1c(CCN2CCN(CCc3ccc(C#N)c4ccccc34)CC2)ccc2c1COC2=O [Example 74, 4-(2-{4-[2-(4-Methyl-1-oxo-1,3-dihydro-2-benzofuran-5-yl)ethyl]piperazin-1-yl}ethyl)naphthalene-1-carbonitrile]
pIC50 [1]: 6.80
pIC50 [2]: 6.80

N#Cc1ccc(CCN2CCN(CCc3ccc([N+](=O)[O-])cc3)CC2)cc1F [Example 32, 2-Fluoro-4-(2-{4-[2-(4-nitrophenyl)ethyl]piperazin-1-yl}ethyl)benzonitrile]
pIC50 [1]: 6.62

COc1cc(CCN2CCN(CCc3ccc4c(c3)CC(C)OC4=O)CC2)ccc1C#N (stereo not shown) [Example 57, 2-Methoxy-4-(2-{4-[2-(3-methyl-1-oxo-3,4-dihydro-1H-isochromen-6-yl)ethyl]piperazin-1-yl}ethyl)benzonitrile]
pIC50 [1]: 7.01
pIC50 [2]: 7.01

Cc1c(CCN2CCN(CC3CCOc4cc(C#N)ccc43)CC2)ccc2c1COC2=O (stereo not shown) [Example 91, 4-({4-[2-(4-Methyl-1-oxo-1,3-dihydro-2-benzofuran-5-yl)ethyl]piperazin-1-yl}methyl)-3,4-dihydro-2H-chromene-7-carbonitrile]
pIC50 [1]: 6.74

O=[N+]([O-])c1ccc(CCN2CCN(CCc3ccc([N+](=O)[O-])cc3C(F)(F)F)CC2)cc1 [Example 15, 1-[2-(4-Nitrophenyl)ethyl]-4-{2-[4-nitro-2-(trifluoromethyl)phenyl]ethyl}piperazine]
pIC50 [1]: 6.36

Cc1c(CCN2CCN(CCc3ccc4c(c3C)COC4=O)CC2)ccc(C#N)c1F [Example 82, 2-Fluoro-3-methyl-4-(2-{4-[2-(4-methyl-1-oxo-1,3-dihydro-2-benzofuran-5-yl)ethyl]piperazin-1-yl}ethyl)benzonitrile]
pIC50 [1]: 7.20

CC(Cc1ccc([N+](=O)[O-])cc1)N1CCN(C(C)Cc2ccc([N+](=O)[O-])cc2)CC1 (stereo not shown) [Example 19, 1,4-Bis[1-methyl-2-(4-nitrophenyl)ethyl]piperazine]
pIC50 [1]: 6.48

O=[N+]([O-])c1ccc(CCN2CCN(CCc3ccc([N+](=O)[O-])cc3)C(CF)C2)cc1 (stereo not shown) [Example 5, 2-(Fluoromethyl)-1,4-bis[2-(4-nitrophenyl)ethyl]piperazine]
pIC50 [1]: 6.74

N#Cc1ccc2c(c1)CC[C@@H](N1CCN(CCc3ccc([N+](=O)[O-])cc3)CC1)C2 [Example 26, (6R)-6-{4-[2-(4-Nitrophenyl)ethyl]piperazin-1-yl}-5,6,7,8-tetrahydronaphthalene-2-carbonitrile]
pIC50 [1]: 7.18
pIC50 [2]: 7.18

O=[N+]([O-])c1ccc(CCN2CCN(CCc3ccc([N+](=O)[O-])cn3)CC2)cc1 [Example 2, 1-[2-(4-Nitrophenyl)ethyl]-4-[2-(5-nitropyridin-2-yl)ethyl]piperazine]
pIC50 [1]: 6.55
